Experimental data as given in publication PMC6026642 (Frontiers in Chemistry, 2018).
Read-outs that look alike come from different tables or passages of the source. No end group written: not given here.

What was measured:
in vivo = settings: both, Wistar, rat, 2 mg/kg
[1] = rat, in vivo, 2 mg/kg
PEDV = type: cell-based, porcine epidemic diarrhea virus
PRV = type: cell-based, pseudorabies virus; settings: TCID50 based, R = A2/A1 × 100%; 50 μg/ml peptide (method says 50 μM, 1 h incubation); Vero and PK-15 cells; mean

Q: What does the source list for FFHHIFRGIVHVGKTIHRLVTG [Piscidin 1]?
A: AUC(0-inf) (in vivo; im): 18.9 ± 1.37 µg·h/mL; Cmax (in vivo; im): 2.37 ± 0.16 µg/mL; MRT (in vivo; im): 30.1 ± 2.46 h; Tmax (in vivo; im): 0.333 ± 0.151 h; bioavailability (in vivo; im): 73.2%; half-life (in vivo; im): 23.5 ± 2.43 h; AUC(0-inf) (in vivo; iv): 25.9 ± 3.21 µg·h/mL; MRT (in vivo; iv): 22.8 ± 2.43 h; clearance (in vivo; iv): 0.067 L/h/kg; half-life (in vivo; iv): 17 ± 1.43 h; AUC(0-inf) (in vivo; po): 9.63 ± 0.87 µg·h/mL; Cmax (in vivo; po): 0.73 ± 0.08 µg/mL; MRT (in vivo; po): 26.8 ± 2.89 h; Tmax (in vivo; po): 0.5 ± 0.23 h; bioavailability (in vivo; po): 37.2%; half-life (in vivo; po): 19.5 ± 1.67 h; AUC0−∞ [1]: 78.40 ± 8.64 µg·h/g; CLb (body clearance) [1]: 0.026 ± 0.008 L/h/kg; Cmax [1]: 1.67 ± 0.19 µg/g; Ke (elimination rate constant) [1]: 0.034 ± 0.06 h⁻¹; MRT [1]: 36.45 ± 2.45 h; Ratio of AUC0−∞, ileum content / serum [1]: 4.14; Ratio of CLb, ileum content / serum [1]: 0.273; Ratio of Cmax, ileum content / serum [1]: 0.71; Ratio of Ke, ileum content / serum [1]: 1.17; Ratio of MRT, ileum content / serum [1]: 1.21; Ratio of T1/2, ileum content / serum [1]: 0.858; Ratio of Tmax, ileum content / serum [1]: 24.38; T1/2 (elimination half-life) [1]: 20.16 ± 1.76 h; Tmax [1]: 8.12 ± 1.02 h

Q: For “FKCRRWQWRM KKLGAPSITC VRRAF [lactoferricin]”, which “virus survived ratio of PEDV” value (PEDV) is on record?
A: The value was 93%.

Q: What about the “virus survived ratio of PRV” value (PRV) of the same sequence?
A: Its value is 82%.
